Data: the NIST ThermoML archive (doi:10.1021/je2009736)
Numbers after ± are expanded uncertainties.

How the values were obtained:
[1] = xn = mol fraction of the nth substance listed; conditions: 101 kPa, Liquid, Vibrating tube method
[2] = 298.15 K; 101.33 kPa; Liquid; Vibrating tube method

C[SiH]1O[SiH](C)O[SiH](C)O[SiH](C)O1 (centres undefined) [2,4,6,8-tetramethyl-1,3,5,7,2,4,6,8-tetroxatetrasilocane] + Cc1ccccc1
mass density [kg/m3], [1]
Conditions	288.15 K	298.15 K	308.15 K
x1 = 0.0499	886.6 ± 0.13	877.08 ± 0.14	867.53 ± 0.14
x1 = 0.0999	899.94 ± 0.13	890.19 ± 0.13	880.4 ± 0.13
x1 = 0.15	911.67 ± 0.13	901.66 ± 0.13	891.68 ± 0.13
x1 = 0.2	921.98 ± 0.12	911.75 ± 0.13	901.57 ± 0.13
x1 = 0.25	931.15 ± 0.12	920.71 ± 0.12	910.33 ± 0.12
x1 = 0.3	939.31 ± 0.12	928.7 ± 0.12	918.15 ± 0.12
x1 = 0.3502	946.71 ± 0.12	935.91 ± 0.12	925.11 ± 0.12
x1 = 0.4	953.26 ± 0.12	942.25 ± 0.12	931.31 ± 0.12
x1 = 0.4501	959.23 ± 0.11	948.05 ± 0.12	936.94 ± 0.12
x1 = 0.5004	964.63 ± 0.11	953.32 ± 0.11	942.01 ± 0.12
x1 = 0.5504	969.56 ± 0.11	958.11 ± 0.11	946.61 ± 0.12
x1 = 0.5998	973.98 ± 0.11	962.38 ± 0.11	950.74 ± 0.11
x1 = 0.6497	978.02 ± 0.11	966.26 ± 0.11	954.47 ± 0.11
x1 = 0.6994	981.74 ± 0.11	969.83 ± 0.11	957.9 ± 0.11
x1 = 0.7497	985.15 ± 0.11	973.12 ± 0.11	961.05 ± 0.11
x1 = 0.8	988.34 ± 0.11	976.19 ± 0.11	963.99 ± 0.11
x1 = 0.8494	991.18 ± 0.11	978.9 ± 0.11	966.61 ± 0.11
x1 = 0.8995	993.85 ± 0.11	981.45 ± 0.11	969.04 ± 0.11

C[SiH]1O[SiH](C)O[SiH](C)O[SiH](C)O1 (centres undefined) [2,4,6,8-tetramethyl-1,3,5,7,2,4,6,8-tetroxatetrasilocane] + Cc1ccccc1C
mass density [kg/m3], [1]
Conditions	288.15 K	298.15 K	308.15 K
x1 = 0.0499	896.79 ± 0.13	888.17 ± 0.13	879.45 ± 0.13
x1 = 0.1	908.22 ± 0.13	899.3 ± 0.13	890.28 ± 0.13
x1 = 0.15	918.4 ± 0.12	909.22 ± 0.13	899.95 ± 0.13
x1 = 0.2	927.56 ± 0.12	918.11 ± 0.12	908.59 ± 0.12
x1 = 0.25	935.82 ± 0.12	926.11 ± 0.12	916.33 ± 0.12
x1 = 0.2998	943.2 ± 0.12	933.25 ± 0.12	923.21 ± 0.12
x1 = 0.3501	949.98 ± 0.12	939.8 ± 0.12	929.53 ± 0.12
x1 = 0.3998	956.06 ± 0.11	945.66 ± 0.12	935.16 ± 0.12
x1 = 0.4496	961.56 ± 0.11	950.95 ± 0.11	940.25 ± 0.12
x1 = 0.4998	966.65 ± 0.11	955.84 ± 0.11	944.92 ± 0.12
x1 = 0.5497	971.24 ± 0.11	960.22 ± 0.11	949.1 ± 0.11
x1 = 0.5997	975.45 ± 0.11	964.25 ± 0.11	952.96 ± 0.11
x1 = 0.6496	979.25 ± 0.11	967.88 ± 0.11	956.36 ± 0.11
x1 = 0.7001	982.82 ± 0.11	971.27 ± 0.11	959.58 ± 0.11
x1 = 0.7502	986.05 ± 0.11	974.32 ± 0.11	962.44 ± 0.11
x1 = 0.7998	988.96 ± 0.11	977.09 ± 0.11	965.04 ± 0.11
x1 = 0.848	991.61 ± 0.11	979.54 ± 0.11	967.33 ± 0.11
x1 = 0.9002	994.23 ± 0.11	982.02 ± 0.11	969.65 ± 0.11

C[SiH]1O[SiH](C)O[SiH](C)O[SiH](C)O1 (centres undefined) [2,4,6,8-tetramethyl-1,3,5,7,2,4,6,8-tetroxatetrasilocane] + c1ccccc1
mass density [kg/m3], [1]
Conditions	288.15 K	298.15 K	308.15 K
x1 = 0.0497	898.88 ± 0.13	888.24 ± 0.13	877.55 ± 0.14
x1 = 0.0999	911.74 ± 0.13	900.99 ± 0.13	890.29 ± 0.13
x1 = 0.1499	922.78 ± 0.12	911.91 ± 0.13	901.26 ± 0.13
x1 = 0.1997	932.3 ± 0.12	921.32 ± 0.12	910.69 ± 0.12
x1 = 0.2501	940.72 ± 0.12	929.65 ± 0.12	918.93 ± 0.12
x1 = 0.3	948.04 ± 0.12	936.87 ± 0.12	926.1 ± 0.12
x1 = 0.35	954.56 ± 0.12	943.15 ± 0.12	932.28 ± 0.12
x1 = 0.3999	960.28 ± 0.11	948.81 ± 0.12	937.73 ± 0.12
x1 = 0.4498	965.46 ± 0.11	953.89 ± 0.11	942.65 ± 0.12
x1 = 0.4999	970.05 ± 0.11	958.4 ± 0.11	947.02 ± 0.11
x1 = 0.5498	974.22 ± 0.11	962.44 ± 0.11	950.92 ± 0.11
x1 = 0.5999	978.03 ± 0.11	966.16 ± 0.11	954.53 ± 0.11
x1 = 0.6486	981.36 ± 0.11	969.41 ± 0.11	957.65 ± 0.11
x1 = 0.7001	984.61 ± 0.11	972.54 ± 0.11	960.64 ± 0.11
x1 = 0.7495	987.43 ± 0.11	975.28 ± 0.11	963.27 ± 0.11
x1 = 0.8001	990.04 ± 0.11	977.8 ± 0.11	965.71 ± 0.11
x1 = 0.8499	992.42 ± 0.11	980.12 ± 0.11	967.91 ± 0.11
x1 = 0.8986	994.56 ± 0.11	982.19 ± 0.11	969.9 ± 0.11

c1ccccc1 [benzene]
Conditions	mass density [kg/m3]
[2]	873.57 ± 0.13

Cc1ccccc1 [toluene]
Conditions	mass density [kg/m3]
[2]	862.23 ± 0.13
